Reference: US20240272164A1, “METHODS FOR CLASSIFYING TUMORS AND USES THEREFOR” (THE UNIVERSITY OF QUEENSLAND, priority 2015, published 2024)
Entries after “also recorded” stand apart in the source; their conditions may differ.

What was measured:
Format in all cases: cell-based
breast cancer cell lines = test system: breast cancer cell lines
From the text: Dyngo4a, a small molecule inhibitor of dynamin, was used to block dynamin-mediated endocytosis (Mccluskey et al., 2013) and added into the immune-dependent cytotoxicity assays. […] However, the specific cell death of BT474 cells was not enhanced following treatment with Dyngo4a (FIG. 4C).

[1] = test system: Cetuximab-sensitive or resistant cell lines; assay: ADCC in response to Cetuximab with endocytosis inhibitors; conditions: either Cetuximab-sensitive or resistant cell lines
Method: If only the plasma membrane levels of HER1 determine ADCC response then we would expect that any pharmacological blockade of HER1 internalization would be expected to enhance ADCC. Thus, numerous endocytosis inhibitors were tested to investigate this hypothesis.

A431 cells = assay: EGF-Alexa488 uptake and clathrin localisation, confocal and 3D-SIM super-resolution microscopy; conditions: for Internalization of EGF-Alexa488: 30 min drug, EGF-Alexa488 last five minutes, confocal, FIG. 7A-C; for Clathrin recruitment to the plasma membrane: 3D-SIM volume projections, FIG. 7G-I; for Effect on HER1 (EGFR) at the plasma membrane: Pitstop-2 30 μM or chlorpromazine 18 μM, 30 min
Method: To discuss the experiments in more detail, A431 cells were incubated in serum-free medium with no drugs (control), or with Pitstop®-2 for 30 min or chlorpromazine for 30 min. During the last five minutes of treatment EGF-Alexa488 was added to monitor CME, after which cells were fixed and imaged (FIG. 7A-C).
Volume projections of a small area of the cell periphery were used to examine the recruitment of clathrin and EGF-positive sites to the cell periphery (FIG. 7G-I). The angle of 3D projection was chosen to show the upper surface of the cell plasma membrane. Points of co-localisation between EGF-Alexa^488 and Alexa^594-conjugated antibodies (which detects clathrin) are rare in 3D-SIM due to the capture of frequency information differences between the 488 and 594 excitation/emission spectra. […] A clathrin punctum was defined as being recruited an HER1-positive site when there was 50 nm or less distance between the clathrin and EGF puncta.
A431 cells were seeded on coverslips in 12-well plates and incubated overnight to reach 80% confluence for super-resolution microscopy based on structured illumination. After a 3 hour-serum starvation the cells were treated with 30 μM of Pitstop®-2 or 18 μM chlorpromazine for 30 min, followed by 5 min uptake with EGF-Alexa488 (100 ng/ml). The uptake of EGF was stopped by washing three times in ice cold PBS. The cells were fixed in 4% paraformaldehyde/phosphate-buffered saline for 30 min and washed three times in phosphate-buffered saline before DAPI staining for 30 min. The coverslips were mounted on slides in Prolong Gold (Life technologies) for confocal analysis or glycerol-based imaging media for three dimensional structured illumination microscopy (3D-SIM). Confocal images were acquired using a Zeiss 510 Meta confocal with a 63 Å˜ objective. Reconstructing the subsequent images after modulating the illumination pattern produces super-resolution images with double the lateral and axial resolution and up to 10 μm into the cell. 3D-SIM images were captured on a Deltavision OMX V3 Imaging System (Applied Precision), EMCCD cameras (CascadeII 512×512 Photometrics) and using a 60×1.4-NA UPlanSApo oil-immersion objective (Olympus) with oil of a refractive index of 1.518. […] Images were computationally reconstructed using Deltavision SoftWorX6.0 Beta 19 software (Applied Precision).

## O=C(N/N=C/c1cc(O)c(O)cc1O)c1cc2ccccc2cc1O [Dyngo4a]
Breast cancer cell lines
  Toxicity of Dyngo4a: non-toxic

## O=C1NC(=NS(=O)(=O)c2cccc3ccccc23)S/C1=C\c1ccc(Br)cc1 [Pitstop®-2]
[1]
  Effect on ADCC in response to Cetuximab: did not increase ADCC
A431 cells; A431 cells
  Internalization of EGF-Alexa488: no internalization
  Clathrin recruitment to the plasma membrane: clathrin was not recruited
A431 cells; A431 cells, confocal and 3D-SIM
  Inhibition of CCV (clathrin coated vesicle) formation: inhibits CCV formation
A431 cells
  Effect on HER1 (EGFR) at the plasma membrane: caused HER1 to be trapped on the plasma membrane

## CN(C)CCCN1c2ccccc2Sc2ccc(Cl)cc21 [chlorpromazine]
A431 cells; A431 cells
  Internalization of EGF-Alexa488: no internalization
  Clathrin recruitment to the plasma membrane: does not inhibit clathrin recruitment
A431 cells
  Effect on HER1 (EGFR) at the plasma membrane: clustering and recruitment of HER1 into CCVs; also recorded: abundant EGFR was trapped at the cell membrane
